Data: patent US9980943B2, “Methods of treating muscular dystrophy” (BOARD OF REGENTS OF THE NEVADA SYSTEM OF HIGHER EDUCATION, …, priority 2013, dated 2018)

Key:
Assay type in all cases: cell-based, mouse
[1] = tested on: α7 integrin (LacZ reporter in α7βgal+/− myoblasts); experiment: Myoblast α7+/LacZ integrin FDG assay (Burkin assay in myoblasts, 96-well); conditions: α7+/LacZ myoblasts, 96-well
[2] = tested on: α7 integrin (LacZ reporter in α7+/LacZ myotubes); experiment: Myotube α7 integrin FDG assay (Burkin assay in myotubes, 96-well); conditions: myotubes
[3] = tested on: β-galactosidase in CMV-LacZ C2C12 myotubes; experiment: CMV-LacZ secondary screen in C2C12 myotubes (β-Gal stabilizing assay); conditions: for CMV-LACZ in Myotubes, signal relative to DMSO: C2C12 CMV-LacZ myotubes, fold relative to DMSO; for CMV-LACZ in Myotubes (β-galactosidase activity relative to DMSO): CMV-LacZ C2C12 myotubes, 96-well format
Method in brief: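 β-gal stabilization was measured in C2C12 myoblasts or myotubes stably transfected with a CMV-driven LacZ construct, using the FDG β-gal assay. Compounds were tested in dose-response at 0.5, 1, 5, 10, 20 and 40 μM, with two replicates per point.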

Row | Structure (SMILES) | Burkin Assay in Myoblasts, value relative to DMSO ([1]; 0.5 uM) | Burkin Assay in Myoblasts, value relative to DMSO ([1]; 1 uM) | Burkin Assay in Myoblasts, value relative to DMSO ([1]; 5 uM) | Burkin Assay in Myoblasts, value relative to DMSO ([1]; 10 uM) | Burkin Assay in Myoblasts, value relative to DMSO ([1]; 20 uM) | Burkin Assay in Myoblasts, value relative to DMSO ([1]; 40 uM) | Burkin Assay in Myotubes (signal relative to DMSO) ([2]; 0.5 uM) | Burkin Assay in Myotubes (signal relative to DMSO) ([2]; 1 uM) | Burkin Assay in Myotubes (signal relative to DMSO) ([2]; 5 uM) | Burkin Assay in Myotubes (signal relative to DMSO) ([2]; 10 uM) | Burkin Assay in Myotubes (signal relative to DMSO) ([2]; 20 uM) | Burkin Assay in Myotubes (signal relative to DMSO) ([2]; 40 uM) | CMV-LACZ in Myotubes, signal relative to DMSO ([3]; 5 uM) | CMV-LACZ in Myotubes, signal relative to DMSO ([3]; 10 uM) | CMV-LACZ in Myotubes, signal relative to DMSO ([3]; 20 uM) | CMV-LACZ in Myotubes, signal relative to DMSO ([3]; 40 uM) | CMV-LACZ in Myotubes (β-galactosidase activity relative to DMSO) ([3]; 5 uM) | CMV-LACZ in Myotubes (β-galactosidase activity relative to DMSO) ([3]; 10 uM) | CMV-LACZ in Myotubes (β-galactosidase activity relative to DMSO) ([3]; 20 uM) | CMV-LACZ in Myotubes (β-galactosidase activity relative to DMSO) ([3]; 40 uM) | other results
1 | Cc1cc(NC(=O)CN2C(=O)/C(=C/c3ccccc3F)SC2=S)no1 [MLS001219159-01] | 0.9597 | 1.059 | 0.9161 | 0.9644 | 0.9199 | 0.952 | 0.861 | 0.9965 | 0.807 | 1.064 | 0.9474 | 0.9507 | 0.9354 | 0.9316 | 0.9636 | 1.023 | – | – | – | – | –
2 | COc1ccc(N2CCN(CCC3Oc4cc([N+](=O)[O-])ccc4NC3=O)CC2)cc1 (stereo not shown) [MLS000696445-01] | – | – | – | – | – | – | – | – | – | – | – | – | 1.268 | 1.011 | 1.122 | 0.924 | – | – | – | – | Burkin Assay in Myoblasts, signal relative to DMSO ([1]; 0.5 uM): 1.013; Burkin Assay in Myoblasts, signal relative to DMSO ([1]; 1 uM): 0.5621; Burkin Assay in Myoblasts, signal relative to DMSO ([1]; 5 uM): 0.867; Burkin Assay in Myoblasts, signal relative to DMSO ([1]; 10 uM): 0.8807; Burkin Assay in Myoblasts, signal relative to DMSO ([1]; 20 uM): 0.813; Burkin Assay in Myoblasts, signal relative to DMSO ([1]; 40 uM): 0.807; Burkin Assay in Myotubes, α7 integrin LacZ reporter signal relative to DMSO ([2]; 0.5 uM): 0.8602; Burkin Assay in Myotubes, α7 integrin LacZ reporter signal relative to DMSO ([2]; 1 uM): 0.8637; Burkin Assay in Myotubes, α7 integrin LacZ reporter signal relative to DMSO ([2]; 5 uM): 0.9714; Burkin Assay in Myotubes, α7 integrin LacZ reporter signal relative to DMSO ([2]; 10 uM): 0.625; Burkin Assay in Myotubes, α7 integrin LacZ reporter signal relative to DMSO ([2]; 20 uM): 0.5843; Burkin Assay in Myotubes, α7 integrin LacZ reporter signal relative to DMSO ([2]; 40 uM): 0.8433
3 | CCCCNC(=O)CN(C(=O)c1snc(C(=O)NC2CCCCC2)c1N)c1ccc(OC)cc1OC [MLS001217697-01] | – | – | – | – | – | – | – | – | – | – | – | – | – | – | – | – | 1.2 | 0.8647 | 0.764 | 0.7395 | fold induction at 0.5 µM ([1]; Mus musculus, Myoblast, 48 h, 0.5 uM, read-out: Burkin Assay in Myoblasts, value relative to DMSO): 1.09; fold induction at 1 µM ([1]; Mus musculus, Myoblast, 48 h, 1 uM, read-out: Burkin Assay in Myoblasts, value relative to DMSO): 1.12; fold induction at 5 µM ([1]; Mus musculus, Myoblast, 48 h, 5 uM, read-out: Burkin Assay in Myoblasts, value relative to DMSO): 1.18; fold induction at 10 µM ([1]; Mus musculus, Myoblast, 48 h, 10 uM, read-out: Burkin Assay in Myoblasts, value relative to DMSO): 1.16; fold induction at 20 µM ([1]; Mus musculus, Myoblast, 48 h, 20 uM, read-out: Burkin Assay in Myoblasts, value relative to DMSO): 0.883; fold induction at 40 µM ([1]; Mus musculus, Myoblast, 48 h, 40 uM, read-out: Burkin Assay in Myoblasts, value relative to DMSO): 1.01; fold induction at 0.5 µM ([2]; Mus musculus, Myotube, 0.5 uM, read-out: Burkin Assay in Myotubes (signal relative to DMSO)): 1.2; fold induction at 1 µM ([2]; Mus musculus, Myotube, 1 uM, read-out: Burkin Assay in Myotubes (signal relative to DMSO)): 0.968; fold induction at 5 µM ([2]; Mus musculus, Myotube, 5 uM, read-out: Burkin Assay in Myotubes (signal relative to DMSO)): 1.16; fold induction at 10 µM ([2]; Mus musculus, Myotube, 10 uM, read-out: Burkin Assay in Myotubes (signal relative to DMSO)): 1.2; fold induction at 20 µM ([2]; Mus musculus, Myotube, 20 uM, read-out: Burkin Assay in Myotubes (signal relative to DMSO)): 1.12; fold induction at 40 µM ([2]; Mus musculus, Myotube, 40 uM, read-out: Burkin Assay in Myotubes (signal relative to DMSO)): 1.12
4 | C[C@H]1CNC(=O)c2c(C(=O)Nc3ccc(CNC(=O)OC(C)(C)C)cc3)ncn21 [MLS003126425-01] | 1.146 | 1.1398 | 1.282 | 1.254 | 1.13 | 0.4401 | 1.104 | 1.203 | 1.422 | 1.6782 | 0.7372 | 0.5208 | – | – | – | – | 1.354 | 0.8902 | 0.743 | 0.7123 | –
